# Measured values: the supplement of paper PMC10307832
# Tests used:
# Experiment in all cases: relative viability (nuclei count vs DMSO), 5 days (fraction); higher = more cells survive
# 201T = test system: 201T
# Summary of the method: (§1)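 A single step with final 0.05% Triton X-100, 1% formaldehyde and 1 ug/ml Hoechst fixed the cells and stained nuclei 5 days after treatment. Lung cancer cell lines in 1536-well plates had been treated by pin tool the day after seeding with one drug alone or a fixed anchor-drug dose plus five library-drug doses (not always all listed) in √10 steps, and nuclei were counted on 4× images. Relative viability is the ratio of nuclei in treated wells to nuclei in vehicle wells, taken as the median of duplicate plates.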
# BEN = test system: BEN
# Summary of the method: as §1
# CAL-12T = test system: CAL-12T
# Summary of the method: as §1
# HCC-44 = test system: HCC-44
# Summary of the method: as §1
# HCC-827 = test system: HCC-827
# Summary of the method: as §1
# HOP-62 = test system: HOP-62
# Summary of the method: as §1
# LCLC-103H = test system: LCLC-103H
# Summary of the method: as §1
# LCLC-97TM1 = test system: LCLC-97TM1
# Summary of the method: as §1
# LXF-289 = test system: LXF-289
# Summary of the method: as §1
# NCI-H1395 = test system: NCI-H1395
# Summary of the method: as §1
# NCI-H1437 = test system: NCI-H1437
# Summary of the method: as §1
# NCI-H1650 = test system: NCI-H1650
# Summary of the method: as §1
# NCI-H1793 = test system: NCI-H1793
# Summary of the method: as §1
# NCI-H1944 = test system: NCI-H1944
# Summary of the method: as §1
# NCI-H2087 = test system: NCI-H2087
# Summary of the method: as §1
# NCI-H2228 = test system: NCI-H2228
# Summary of the method: as §1
# NCI-H2405 = test system: NCI-H2405
# Summary of the method: as §1
# NCI-H3122 = test system: NCI-H3122
# Summary of the method: as §1
# NCI-H322M = test system: NCI-H322M
# Summary of the method: as §1
# NCI-H647 = test system: NCI-H647
# Summary of the method: as §1
# NCI-H727 = test system: NCI-H727
# Summary of the method: as §1
# RERF-LC-KJ = test system: RERF-LC-KJ
# Summary of the method: as §1
# SK-LU-1 = test system: SK-LU-1
# Summary of the method: as §1
structure (smiles),measurement,setting,value
Oc1nc(-c2ccc(C(F)(F)F)cc2)nc2c1CSCC2 [XAV939] + Cc1cc(Nc2cc(N3CCN(C)CC3)nc(Sc3ccc(NC(=O)C4CC4)cc3)n2)n[nH]1 [Tozasertib] (partner 0.1 µM),relative viability,201T; first compound 0.08 µM,0.99
same,relative viability,201T; first compound 0.253 µM,0.763
same,relative viability,201T; first compound 0.8 µM,0.812
same,relative viability,201T; first compound 2.53 µM,0.755
same,relative viability,BEN; first compound 0.08 µM,0.579
same,relative viability,BEN; first compound 0.253 µM,0.451
same,relative viability,BEN; first compound 0.8 µM,0.542
same,relative viability,BEN; first compound 2.53 µM,0.444
same,relative viability,CAL-12T; first compound 0.08 µM,0.386
same,relative viability,CAL-12T; first compound 0.253 µM,0.29
same,relative viability,CAL-12T; first compound 0.8 µM,0.222
same,relative viability,CAL-12T; first compound 2.53 µM,0.196
same,relative viability,HCC-44; first compound 0.08 µM,1.46
same,relative viability,HCC-44; first compound 0.253 µM,0.799
same,relative viability,HCC-44; first compound 0.8 µM,0.996
same,relative viability,HCC-44; first compound 2.53 µM,0.789
same,relative viability,HCC-827; first compound 0.08 µM,0.423
same,relative viability,HCC-827; first compound 0.253 µM,0.387
same,relative viability,HCC-827; first compound 0.8 µM,0.414
same,relative viability,HCC-827; first compound 2.53 µM,0.384
same,relative viability,HOP-62; first compound 0.08 µM,0.372
same,relative viability,HOP-62; first compound 0.253 µM,0.339
same,relative viability,HOP-62; first compound 0.8 µM,0.338
same,relative viability,HOP-62; first compound 2.53 µM,0.329
same,relative viability,LCLC-103H; first compound 0.08 µM,0.576
same,relative viability,LCLC-103H; first compound 0.253 µM,0.402
same,relative viability,LCLC-103H; first compound 0.8 µM,0.444
same,relative viability,LCLC-103H; first compound 2.53 µM,0.504
same,relative viability,LCLC-97TM1; first compound 0.08 µM,0.344
same,relative viability,LCLC-97TM1; first compound 0.253 µM,0.238
same,relative viability,LCLC-97TM1; first compound 0.8 µM,0.186
same,relative viability,LCLC-97TM1; first compound 2.53 µM,0.352
same,relative viability,LXF-289; first compound 0.08 µM,0.215
same,relative viability,LXF-289; first compound 0.253 µM,0.187
same,relative viability,LXF-289; first compound 0.8 µM,0.161
same,relative viability,LXF-289; first compound 2.53 µM,0.111
same,relative viability,NCI-H1395; first compound 0.08 µM,0.716
same,relative viability,NCI-H1395; first compound 0.253 µM,0.651
same,relative viability,NCI-H1395; first compound 0.8 µM,0.797
same,relative viability,NCI-H1395; first compound 2.53 µM,0.632
same,relative viability,NCI-H1437; first compound 0.08 µM,0.419
same,relative viability,NCI-H1437; first compound 0.253 µM,0.335
same,relative viability,NCI-H1437; first compound 0.8 µM,0.443
same,relative viability,NCI-H1437; first compound 2.53 µM,0.414
same,relative viability,NCI-H1650; first compound 0.08 µM,0.471
same,relative viability,NCI-H1650; first compound 0.253 µM,0.36
same,relative viability,NCI-H1650; first compound 0.8 µM,0.406
same,relative viability,NCI-H1650; first compound 2.53 µM,0.332
same,relative viability,NCI-H1793; first compound 0.08 µM,0.403
same,relative viability,NCI-H1793; first compound 0.253 µM,0.297
same,relative viability,NCI-H1793; first compound 0.8 µM,0.306
same,relative viability,NCI-H1793; first compound 2.53 µM,0.263
same,relative viability,NCI-H1944; first compound 0.08 µM,0.261
same,relative viability,NCI-H1944; first compound 0.253 µM,0.228
same,relative viability,NCI-H1944; first compound 0.8 µM,0.235
same,relative viability,NCI-H1944; first compound 2.53 µM,0.224
same,relative viability,NCI-H2087; first compound 0.08 µM,0.234
same,relative viability,NCI-H2087; first compound 0.253 µM,0.231
same,relative viability,NCI-H2087; first compound 0.8 µM,0.256
same,relative viability,NCI-H2087; first compound 2.53 µM,0.181
same,relative viability,NCI-H2228; first compound 0.08 µM,0.31
same,relative viability,NCI-H2228; first compound 0.253 µM,0.23
same,relative viability,NCI-H2228; first compound 0.8 µM,0.247
same,relative viability,NCI-H2228; first compound 2.53 µM,0.255
same,relative viability,NCI-H2405; first compound 0.08 µM,0.805
same,relative viability,NCI-H2405; first compound 0.253 µM,0.72
same,relative viability,NCI-H2405; first compound 0.8 µM,0.712
same,relative viability,NCI-H2405; first compound 2.53 µM,0.66
same,relative viability,NCI-H3122; first compound 0.08 µM,0.569
same,relative viability,NCI-H3122; first compound 0.253 µM,0.407
same,relative viability,NCI-H3122; first compound 0.8 µM,0.389
same,relative viability,NCI-H3122; first compound 2.53 µM,0.337
same,relative viability,NCI-H322M; first compound 0.08 µM,0.553
same,relative viability,NCI-H322M; first compound 0.253 µM,0.432
same,relative viability,NCI-H322M; first compound 0.8 µM,0.431
same,relative viability,NCI-H322M; first compound 2.53 µM,0.4
same,relative viability,NCI-H647; first compound 0.08 µM,0.288
same,relative viability,NCI-H647; first compound 0.253 µM,0.217
same,relative viability,NCI-H647; first compound 0.8 µM,0.262
same,relative viability,NCI-H647; first compound 2.53 µM,0.146
same,relative viability,NCI-H727; first compound 0.08 µM,0.69
same,relative viability,NCI-H727; first compound 0.253 µM,0.543
same,relative viability,NCI-H727; first compound 0.8 µM,0.769
same,relative viability,NCI-H727; first compound 2.53 µM,0.62
same,relative viability,RERF-LC-KJ; first compound 0.08 µM,0.546
same,relative viability,RERF-LC-KJ; first compound 0.253 µM,0.465
same,relative viability,RERF-LC-KJ; first compound 0.8 µM,0.462
same,relative viability,RERF-LC-KJ; first compound 2.53 µM,0.409
same,relative viability,SK-LU-1; first compound 0.08 µM,0.35
same,relative viability,SK-LU-1; first compound 0.253 µM,0.267
same,relative viability,SK-LU-1; first compound 0.8 µM,0.322
same,relative viability,SK-LU-1; first compound 2.53 µM,0.279
